In US8541588B2, “Sulfonamide derivatives” (Pfizer Limited, priority 2009, dated 2013):

These molecules were tested against T1, Nav1.7 (or SCN9A) channel; HEK cells stably transfected with hSCN9A (Homo sapiens, UniProt Q15858) (assay: Nav1.7 block, PatchXpress 7000 automated whole-cell voltage clamp, estimated IC50 (EIC50)). Settings: PatchXpress platform; hSCN9A HEK cells held at V1/2 of inactivation; estimated IC50.
T1 construct: expressed in transfected cells
Assay type: cell-based

T1 sequence (Q15858 whole entry): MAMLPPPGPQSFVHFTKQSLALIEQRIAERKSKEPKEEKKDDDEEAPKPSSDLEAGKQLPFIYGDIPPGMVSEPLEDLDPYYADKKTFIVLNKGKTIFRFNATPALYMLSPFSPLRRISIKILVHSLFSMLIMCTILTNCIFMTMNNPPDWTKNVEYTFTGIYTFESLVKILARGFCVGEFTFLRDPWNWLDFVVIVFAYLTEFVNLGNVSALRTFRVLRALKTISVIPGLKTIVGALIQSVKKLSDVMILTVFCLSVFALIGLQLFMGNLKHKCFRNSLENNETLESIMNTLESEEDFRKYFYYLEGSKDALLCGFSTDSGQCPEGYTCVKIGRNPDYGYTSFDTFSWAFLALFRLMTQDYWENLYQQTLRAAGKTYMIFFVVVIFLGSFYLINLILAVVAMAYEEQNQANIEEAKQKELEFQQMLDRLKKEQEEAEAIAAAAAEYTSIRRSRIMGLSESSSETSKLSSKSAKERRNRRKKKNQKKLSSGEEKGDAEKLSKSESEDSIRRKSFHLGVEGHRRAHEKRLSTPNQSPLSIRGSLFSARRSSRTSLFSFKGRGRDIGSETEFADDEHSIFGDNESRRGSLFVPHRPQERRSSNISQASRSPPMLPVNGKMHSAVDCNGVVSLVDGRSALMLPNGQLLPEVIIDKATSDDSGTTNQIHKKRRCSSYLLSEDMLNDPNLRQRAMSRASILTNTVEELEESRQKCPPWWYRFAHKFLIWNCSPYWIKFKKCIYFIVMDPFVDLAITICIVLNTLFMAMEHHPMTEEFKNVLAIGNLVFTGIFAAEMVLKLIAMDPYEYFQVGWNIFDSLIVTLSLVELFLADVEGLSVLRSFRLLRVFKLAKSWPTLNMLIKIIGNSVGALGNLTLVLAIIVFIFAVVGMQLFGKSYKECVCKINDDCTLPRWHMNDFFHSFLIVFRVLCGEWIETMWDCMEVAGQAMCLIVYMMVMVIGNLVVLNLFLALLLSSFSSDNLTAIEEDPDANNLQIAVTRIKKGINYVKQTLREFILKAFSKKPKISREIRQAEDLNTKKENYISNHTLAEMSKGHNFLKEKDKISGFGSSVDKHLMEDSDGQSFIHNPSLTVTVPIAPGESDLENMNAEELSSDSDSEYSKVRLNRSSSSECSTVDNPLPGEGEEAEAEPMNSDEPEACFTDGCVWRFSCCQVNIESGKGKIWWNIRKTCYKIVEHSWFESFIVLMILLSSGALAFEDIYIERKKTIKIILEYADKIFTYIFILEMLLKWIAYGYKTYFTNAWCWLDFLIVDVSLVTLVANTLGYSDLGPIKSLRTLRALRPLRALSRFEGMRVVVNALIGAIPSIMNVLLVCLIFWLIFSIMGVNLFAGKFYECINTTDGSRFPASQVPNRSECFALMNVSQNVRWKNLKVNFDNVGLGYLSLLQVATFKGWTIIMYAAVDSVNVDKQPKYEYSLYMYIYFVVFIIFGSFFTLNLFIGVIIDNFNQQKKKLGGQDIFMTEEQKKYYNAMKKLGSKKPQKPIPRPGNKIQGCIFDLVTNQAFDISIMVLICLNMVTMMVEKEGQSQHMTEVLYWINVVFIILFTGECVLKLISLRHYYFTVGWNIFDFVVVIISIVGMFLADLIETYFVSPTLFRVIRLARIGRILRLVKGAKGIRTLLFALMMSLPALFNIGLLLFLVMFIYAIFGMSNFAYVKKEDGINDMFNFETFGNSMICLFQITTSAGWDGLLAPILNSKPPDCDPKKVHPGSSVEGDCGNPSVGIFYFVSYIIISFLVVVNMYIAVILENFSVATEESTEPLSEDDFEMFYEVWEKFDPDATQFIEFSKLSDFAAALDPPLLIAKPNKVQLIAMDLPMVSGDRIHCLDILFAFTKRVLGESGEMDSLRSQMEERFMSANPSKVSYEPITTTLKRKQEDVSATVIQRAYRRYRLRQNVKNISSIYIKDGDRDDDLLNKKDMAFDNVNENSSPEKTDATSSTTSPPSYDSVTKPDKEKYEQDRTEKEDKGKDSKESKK

IC50 | Structure (SMILES)
>10000 nM | N#Cc1cc(S(=O)(=O)Nc2ncns2)ccc1Oc1nnccc1-c1ccccc1 [Example 21, 3-cyano-4-[(4-phenylpyridazin-3-yl)oxy]-N-1,2,4-thiadiazol-5-ylbenzenesulfonamide]
2700 nM | N#Cc1cc(S(=O)(=O)Nc2ncc(Cl)s2)ccc1Oc1ccccc1OCc1ccccc1 [Example 136, 4-[2-(benzyloxy)phenoxy]-N-(5-chloro-1,3-thiazol-2-yl)-3-cyanobenzenesulfonamide]
450 nM | CC(C)Oc1ccc(-c2cc(F)ccc2Oc2ccc(S(=O)(=O)Nc3nccs3)cc2C#N)cc1 [Example 157, 3-cyano-4-[(5-fluoro-4′-isopropoxybiphenyl-2-yl)oxy]-N-1,3-thiazol-2-ylbenzenesulfonamide]
2000 nM | COc1ccc(-n2cc(Oc3ccc(S(=O)(=O)Nc4ncc(Cl)s4)cc3C#N)c(C(C)C)n2)cc1 [Example 145, N-(5-chloro-1,3-thiazol-2-yl)-3-cyano-4-{[3-isopropyl-1-(4-methoxyphenyl)-1H-pyrazol-4-yl]oxy}benzenesulfonamide]
70 nM | CC(C)(C)n1nc(C(F)(F)F)cc1-c1ccc(Oc2ccc(S(=O)(=O)Nc3nccs3)cc2C#N)cc1 [Example 279, 4-[4-(2-tertbutyl-5-trifluoromethyl-2H-pyrazol-3-yl)-phenoxy]-3-cyano-N-thiazol-2-yl-benzenesulfonamide]
1230 nM | N#Cc1cc(S(=O)(=O)Nc2ncc(Cl)s2)ccc1Oc1cc(C(F)(F)F)nn1-c1ccccc1 [Example 141, N-(5-chloro-1,3-thiazol-2-yl)-3-cyano-4-{[1-phenyl-3-(trifluoromethyl)-1H-pyrazol-5-yl]oxy}benzenesulfonamide]
2030 nM | Cc1cccc(-c2ccc(F)cc2)c1Oc1ccc(S(=O)(=O)Nc2ncns2)cc1C#N [Example 39, 3-cyano-4-[(4′-fluoro-3-methylbiphenyl-2-yl)oxy]-N-1,2,4-thiadiazol-5-ylbenzenesulfonamide]
8870 nM | Cc1ccnn1-c1cc(F)ccc1Oc1ccc(S(=O)(=O)Nc2nccs2)cc1C#N [Example 176, 3-cyano-4-(4-fluoro-2-(5-methyl-1H-pyrazol-1-yl)phenoxy)-N-(thiazol-2-yl)benzenesulfonamide]
>10000 nM | N#Cc1cc(S(=O)(=O)Nc2ccccc2)ccc1Oc1ccccc1-c1ccccc1 [Example 114, 4-(biphenyl-2-yloxy)-3-cyano-N-phenylbenzenesulfonamide]
2180 nM | N#Cc1cc(S(=O)(=O)Nc2ncns2)ccc1Oc1cc(Cc2ccc(Cl)cc2)nn1CCO [Example 94, 4-{[3-(4-chlorobenzyl)-1-(2-hydroxyethyl)-1H-pyrazol-5-yl]oxy}-3-cyano-N-1,2,4-thiadiazol-5-ylbenzenesulfonamide]
1150 nM | O=S(=O)(Nc1cscn1)c1ccc(Oc2ccccc2-c2ccccc2)c(F)c1 [Example 271, 4-(biphenyl-2-yloxy)-3-fluoro-N-thiazol-4-yl-benzenesulfonamide]

Same assay, conditions: estimated IC50; hSCN9A HEK cells, PatchXpress platform; Examples 283-814

IC50 | Structure (SMILES)
>30000 nM | N#Cc1cc(S(=O)(=O)Nc2ccc(F)cn2)ccc1Oc1ccc(CN2CCC2)c(F)c1 [Example 566, 4-[4-(azetidin-1-ylmethyl)-3-fluorophenoxy]-3-cyano-N-(5-fluoropyridin-2-yl)benzenesulfonamide]
1600 nM | N#Cc1cc(S(=O)(=O)Nc2nccs2)ccc1Oc1ccc(-n2ccc(C3CC3)n2)cc1 [Example 370, 3-cyano-4-[4-(3-cyclopropyl-1H-pyrazol-1-yl)phenoxy]-N-1,3-thiazol-2-ylbenzenesulfonamide]
20 nM | Cc1[nH]ncc1-c1cc(Cl)ccc1Oc1ccc(S(=O)(=O)Nc2nccs2)cc1C#N [Example 546, 4-[4-chloro-2-(5-methyl-1H-pyrazol-4-yl)phenoxy]-3-cyano-N-1,3-thiazol-2-ylbenzenesulfonamide]
210 nM | O=S(=O)(Nc1cscn1)c1cc(F)c(Oc2ccc(OC(F)(F)F)cc2-c2cn[nH]c2)cc1F [Example 750, 2,5-difluoro-4-[2-(1H-pyrazol-4-yl)-4-(trifluoromethoxy)phenoxy]-N-1,3-thiazol-4-ylbenzenesulfonamide]
380 nM | O=S(=O)(Nc1ccc(F)cn1)c1cc(F)c(Oc2ccc(Cl)cc2C2CCNCC2)cc1F [Example 561, 4-(4-chloro-2-piperidin-4-ylphenoxy)-2,5-difluoro-N-(5-fluoropyridin-2-yl)benzenesulfonamide]
>1000 nM | N#Cc1cc(S(=O)(=O)Nc2nccs2)ccc1Oc1ccc(N2CCCC2=O)cc1 [Example 488, 3-cyano-4-[4-(2-oxopyrrolidin-1-yl)phenoxy]-N-1,3-thiazol-2-ylbenzenesulfonamide]
30 nM | Nc1cccc(-c2cc(F)ccc2Oc2cc(F)c(S(=O)(=O)Nc3ncns3)cc2Cl)n1 [Example 617, 4-[2-(6-aminopyridin-2-yl)-4-fluorophenoxy]-5-chloro-2-fluoro-N-1,2,4-thiadiazol-5-ylbenzenesulfonamide]
57 nM | N#Cc1cc(S(=O)(=O)Nc2nccs2)ccc1Oc1ccc(Cl)cc1-c1cccnc1 [Example 700, 4-(4-chloro-2-pyridin-3-ylphenoxy)-3-cyano-N-1,3-thiazol-2-ylbenzenesulfonamide]
350 nM | Cn1nccc1-c1cc(Cl)ccc1Oc1ccc(S(=O)(=O)Nc2ccncn2)cc1F [Example 670, 4-[4-Chloro-2-(1-methyl-1H-pyrazol-5-yl)phenoxy]-3-fluoro-N-pyrimidin-4-ylbenzenesulfonamide]
1000 nM | O=S(=O)(Nc1cscn1)c1ccc(Oc2ccc(Cl)cc2-c2cn[nH]c2)cc1F [Example 680, 4-[4-chloro-2-(1H-pyrazol-4-yl)phenoxy]-2-fluoro-N-1,3-thiazol-4-ylbenzenesulfonamide]
52 nM | O=S(=O)(Nc1ccc(F)cn1)c1cc(Cl)c(Oc2ccc(C(F)(F)F)cc2C2CCNCC2)cc1F [Example 800, 5-Chloro-2-fluoro-N-(5-fluoropyridin-2-yl)-4-[2-piperidin-4-yl-4-(trifluoromethyl)phenoxy]benzenesulfonamide]
1800 nM | Cn1nccc1-c1ccc(Oc2ccc(S(=O)(=O)Nc3nccs3)cc2C#N)cc1Cl [Example 443, 4-[3-chloro-4-(1-methyl-1H-pyrazol-5-yl)phenoxy]-3-cyano-N-1,3-thiazol-2-ylbenzenesulfonamide]
330 nM | N#Cc1cc(S(=O)(=O)Nc2nccs2)ccc1Oc1ccc(Cl)cc1CN1CCC(F)(F)C1 [Example 360, 4-{4-chloro-2-[(3,3-difluoropyrrolidin-1-yl)methyl]phenoxy}-3-cyano-N-1,3-thiazol-2-ylbenzenesulfonamide]
160 nM | Cn1nc(C(F)(F)F)cc1-c1ccc(Oc2ccc(S(=O)(=O)Nc3ncc(F)s3)cc2C#N)cc1F [Example 719, 3-cyano-4-{3-fluoro-4-[1-methyl-3-(trifluoromethyl)-1H-pyrazol-5-yl]phenoxy}-N-(5-fluoro-1,3-thiazol-2-yl)benzenesulfonamide]

Same assay, conditions: estimated IC50; hSCN9A HEK cells, PatchXpress platform; Examples 815-1040

IC50 | Structure (SMILES)
3.5 nM | CCN1CC(n2nccc2-c2cc(C(F)(F)F)ccc2Oc2ccc(S(=O)(=O)Nc3ncns3)cc2C#N)C1 [Example 1033, 3-Cyano-4-{2-[1-(1-ethylazetidin-3-yl)-1H-pyrazol-5-yl]-4-(trifluoromethyl)phenoxy}-N-1,2,4-thiadiazol-5-ylbenzenesulfonamide]
780 nM | CSc1nnc(NS(=O)(=O)c2ccc(Oc3ccc(Cl)cc3-c3ccnn3C)c(C#N)c2)s1 [Example 891, 4-[4-chloro-2-(1-methyl-1H-pyrazol-5-yl)phenoxy]-3-cyano-N-[5-(methylthio)-1,3,4-thiadiazol-2-yl]benzenesulfonamide]
17 nM | O=C(c1cccc(-c2cc(Cl)ccc2Oc2ccc(S(=O)(=O)Nc3ccncn3)cc2Cl)c1)N1CCC1 [Example 858, 4-{[3′-(azetidin-1-ylcarbonyl)-5-chlorobiphenyl-2-yl]oxy}-3-chloro-N-pyrimidin-4-ylbenzenesulfonamide]
5.1 nM | O=S(=O)(Nc1ncns1)c1ccc(Oc2ccc(Cl)cc2-c2ccnnc2)c(Cl)c1 [Example 898, 3-chloro-4-(4-chloro-2-pyridazin-4-ylphenoxy)-N-1,2,4-thiadiazol-5-ylbenzenesulfonamide]
22 nM | O=C(c1cccc(-c2cc(Cl)ccc2Oc2cc(F)c(S(=O)(=O)Nc3cscn3)cc2Cl)c1)N1CCC1 [Example 856, 4-{[3′-(azetidin-1-ylcarbonyl)-5-chlorobiphenyl-2-yl]oxy}-5-chloro-2-fluoro-N-1,3-thiazol-4-ylbenzenesulfonamide]
2.1 nM | CN1CC(n2nccc2-c2cc(OC(F)(F)F)ccc2Oc2cc(F)c(S(=O)(=O)Nc3nncs3)cc2Cl)C1 [Example 1017, 5-chloro-2-fluoro-4-{2-[1-(1-methylazetidin-3-yl)-1H-pyrazol-5-yl]-4-(trifluoromethoxy)phenoxy}-N-1,3,4-thiadiazol-2-ylbenzenesulfonamide]
130 nM | N#Cc1cc(S(=O)(=O)Nc2ncns2)ccc1Oc1ccc(Cl)cc1-c1cccc(CC(=O)O)c1 [Example 1000, (5′-chloro-2′-{2-cyano-4-[(1,2,4-thiadiazol-5-ylamino)sulfonyl]phenoxy}biphenyl-3-yl)acetic acid]
140 nM | O=S(=O)(Nc1ncns1)c1cc(F)c(Oc2ccc(F)cc2-c2ccnnc2)cc1F [Example 931, 2,5-difluoro-4-(4-fluoro-2-pyridazin-4-ylphenoxy)-N-1,2,4-thiadiazol-5-ylbenzenesulfonamide]
40 nM | O=S(=O)(Nc1nncs1)c1cc(Cl)c(Oc2cc(OC(F)(F)F)ccc2-c2ccnnc2)cc1F [Example 966, 5-chloro-2-fluoro-4-[2-pyridazin-4-yl-5-(trifluoromethoxy)phenoxy]-N-1,3,4-thiadiazol-2-ylbenzenesulfonamide]
130 nM | O=S(=O)(Nc1ccncn1)c1ccc(Oc2ccc(Cl)cc2-c2ccnnc2)c(Cl)c1 [Example 847, 3-chloro-4-(4-chloro-2-pyridazin-4-ylphenoxy)-N-pyrimidin-4-ylbenzenesulfonamide]
